SMILES strings stand for the structures. Read-outs that look alike come from different tables or passages of the source.

The values that follow come from patent US12466821B2 (Novartis AG, priority 2018, dated 2025).

Assay [1] deals with human CMV DNA polymerase UL54 (Human cytomegalovirus (strain AD169) (HHV-5) (Human herpesvirus 5), UniProt P08546). Briefly: CMV polymerase biochemical assay (molecular beacon-based). The gist of the method:
(§1)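 Full-length wild-type N-terminal MBP-fusion polymerases from sf9 cells were used at 100 pM (CMV) or 625 pM (HSV) in Tris pH 7.5, 10 mM MgCl2, and preincubated with inhibitor for 30 min at RT. Reactions with 1.25 uM each dNTP, 200 nM primer and 100 nM molecular beacon ran 60 min (CMV) or 20 min (HSV) at RT. Fluorescence was read at 480/535 nm and IC50 derived.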

The target in assay [2] is human HSV DNA polymerase UL30 (Human herpesvirus 1 (strain 17) (HHV-1) (Human herpes simplex virus 1), UniProt P04293). Briefly: HSV polymerase biochemical assay (molecular beacon-based). In short, it runs like this: as §1
Assay [3] has as its system Luciferase-encoding HCMV, AD169 strain. Nature of the assay: CMV Luciferase assay (cellular herpesvirus replication). The assay is classed as cell-based. In short, it runs like this: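 Reporter HCMV AD169 with luciferase driven by late pp28 promoter, so signal requires viral DNA replication; NN-NHDF fibroblasts in 2% FBS medium, compound (0.0159–50 or 0.00318–10 μM, 0.5% DMSO) added 1 h before infection at MOI 1. Luminescence read 72 hpi; EC50 from 4-parameter fit of control-normalized %.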

[4] abbreviates: Human betaherpesvirus 5, AD169, read-out: CMV-Luc Cellular EC50.

What is called IC50 is the midpoint of a concentration-inhibition curve. Read a low IC50 as inhibition by little substance. As usually defined, the EC50 is the concentration needed to bring the measured effect to its halfway point. For the compound `CN(C(C)(C)C)S(=O)(=O)C1(CN2CCn3c(ccc(C(=O)NCc4ccc(C#N)cc4)c3=O)C2=O)CC1` [Example 75-1], the IC50 in assay [1] is 1.1 nM; in assay [2], 45.9 nM. The EC50 in assay [3] (setting [4]) stood at 35.6 nM.

On to `Cc1cc(C(=O)NCc2ccc(Cl)cc2)c(=O)n2c1C(=O)N(CCN(C)S(C)(=O)=O)CC2` [Example 148, N-(4-chlorobenzyl)-9-methyl-2-(2-(N-methylmethylsulfonamido)ethyl)-1,6-dioxo-1,3,4,6-tetrahydro-2H-pyrido[1,2-a]pyrazine-7-carboxamide], for which the IC50 in assay [1] was 181 nM; in assay [2], 1510 nM. Also, the EC50 in assay [3] (setting [4]) is 1660 nM.

For `Cc1nc(-c2cc(C(=O)NCc3ccc(Cl)cc3)c(=O)n3c2C(=O)N(CCS(C)(=O)=O)CC3)no1` [Example 159, N-(4-chlorobenzyl)-9-(5-methyl-1,2,4-oxadiazol-3-yl)-2-(2-(methylsulfonyl)ethyl)-1,6-dioxo-1,3,4,6-tetrahydro-2H-pyrido[1,2-a]pyrazine-7-carboxamide], the IC50 was found to be 1780 nM in assay [1] and 5660 nM in assay [2]. Further, in assay [3] (setting [4]), the EC50 amounted to 26600 nM.

Consider `O=C(NCc1ccc(Cl)cc1)c1ccc2n(c1=O)CCN(CC1(N3CCCC3=O)CC1)C2=O` [Example 201, N-(4-chlorobenzyl)-1,6-dioxo-2-((1-(2-oxopyrrolidin-1-yl)cyclopropyl)methyl)-1,3,4,6-tetrahydro-2H-pyrido[1,2-a]pyrazine-7-carboxamide], for which the IC50 in assay [1] amounted to 182 nM; in assay [2], 4060 nM. The EC50 in assay [3] (setting [4]) was determined as 4810 nM.

Consider `Cc1cc(C(=O)NCc2ccc(C#N)cc2)c(=O)n2c1C(=O)N(CC1(S(C)(=O)=O)CC1)CC2` [Example 85, N-(4-cyanobenzyl)-9-methyl-2-((1-(methylsulfonyl)cyclopropyl)methyl)-1,6-dioxo-2,3,4,6-tetrahydro-111-pyrido[1,2-a]pyrazine-7-carboxamide], for which the IC50 worked out at 4.7 nM in assay [1] and 102 nM in assay [2]. The EC50 in assay [3] (read-out: CMV-Luc Cellular EC50) was found to be 177 nM.

Turning to `C[C@@H](CCO)S(=O)(=O)C1(CN2CCn3c(ccc(C(=O)NCc4ccc(Cl)cc4)c3=O)C2=O)CC1` (single isomer, unassigned) [Example 7, N-(4-chlorobenzyl)-2-((1-((4-hydroxybutan-2-yl)sulfonyl)cyclopropyl)methyl)-1,6-dioxo-2,3,4,6-tetrahydro-1H-pyrido[1,2-a]pyrazine-7-carboxamide], the IC50 in assay [1] is 1 nM; in assay [2], 35.6 nM. Further, in assay [3] (setting [4]), the EC50 came out at 32.8 nM.

In the case of `N#Cc1ccc(CNC(=O)c2ccc3n(c2=O)CCN(CC2(S(=O)(=O)[C@@H]4CC4(F)F)CC2)C3=O)cc1Cl` (single isomer, unassigned) [Example 102-2], the IC50 in assay [1] was found to be 1.5 nM; in assay [2], 162 nM. The EC50 in assay [3] (setting [4]) was 85.2 nM.

Turning to `N#Cc1ccc(CNC(=O)c2ccc3n(c2=O)CCN(CC2(S(=O)(=O)C4(F)CC4)CC2)C3=O)cc1` [Example 77-1, N-(4-cyanobenzyl)-2-((1-((1-fluorocyclopropyl)sulfonyl)cyclopropyl)methyl)-1,6-dioxo-2,3,4,6-tetrahydro-1H-pyrido[1,2-a]pyrazine-7-carboxamide], the IC50 amounted to 3.2 nM in assay [1] and 95.4 nM in assay [2]. Moreover, the EC50 in assay [3] (setting [4]) was determined as 126 nM.

Turning to `CS(=O)(=O)N1CCC[C@H]1CN1CCn2c(ccc(C(=O)NCc3ccc(Cl)cc3)c2=O)C1=O` [Example 63-1], the IC50 worked out at 1400 nM in assay [1] and 23400 nM in assay [2]. Moreover, the EC50 in assay [3] (setting [4]) stood at 42700 nM.

`CC(=O)N(C)C1(CN2CCn3c(ccc(C(=O)NCc4ccc(Cl)cc4)c3=O)C2=O)CC1` [Example 205]: the IC50 came to 249 nM in assay [1] and 8590 nM in assay [2]. Besides, the EC50 in assay [3] (setting [4]) was 3760 nM.

Take `C[S@](=N)(=O)C1(CN2CCn3c(ccc(C(=O)NCc4ccc(Cl)cc4)c3=O)C2=O)CC1` (single isomer, unassigned) [Example 96-2]: the IC50 in assay [1] came to 66.5 nM; in assay [2], 1920 nM. For the same compound, the EC50 in assay [3] (setting [4]) came out at 847 nM.

As for `O=C(NCc1ccc(Cl)cc1)c1ccc2n(c1=O)CCN(CC1(S(=O)(=O)CC3CC3)CC1)C2=O` [Example 107-1, N-(4-chlorobenzyl)-2-((1-((cyclopropylmethyl)sulfonyl)cyclopropyl)methyl)-1,6-dioxo-2,3,4,6-tetrahydro-1H-pyrido[1,2-a]pyrazine-7-carboxamide], the IC50 stood at 1.9 nM in assay [1] and 61.6 nM in assay [2]. Also, in assay [3] (setting [4]), the EC50 stood at 111 nM.

`CN(CCN1CCn2c(ccc(C(=O)NCc3ccc(Cl)cc3)c2=O)C1=O)S(=O)(=O)C1CC1` [Example 60]: the IC50 is 124 nM in assay [1] and 888 nM in assay [2]. For the same compound, in assay [3] (setting [4]), the EC50 came out at 1250 nM.

For the compound `N#Cc1ccc(CNC(=O)c2ccc3n(c2=O)CCN(CC2CCCS2(=O)=O)C3=O)cc1F` (stereo not drawn) [Example 82, N-(4-cyano-3-fluorobenzyl)-2-((1,1-dioxidotetrahydrothiophen-2-yl)methyl)-1,6-dioxo-2,3,4,6-tetrahydro-1H-pyrido[1,2-a]pyrazine-7-carboxamide], the IC50 in assay [1] came out at 1090 nM; in assay [2] it was 20900 nM. Besides, the EC50 in assay [3] (setting [4]) is 10000 nM.

As to `N#Cc1ccc(CNC(=O)c2ccc3n(c2=O)CCN(CC2(S(=O)(=O)[C@H]4CC4(F)F)CC2)C3=O)cc1F` (single isomer, unassigned) [Example 101-1], the IC50 amounted to 1 nM in assay [1] and 48.7 nM in assay [2]. Moreover, in assay [3] (setting [4]), the EC50 came to 55.5 nM.

With `N#Cc1ccc(CNC(=O)c2ccc3n(c2=O)CCN(CC2(S(=O)(=O)C4CCOCC4)CC2)C3=O)cc1` [Example 105-2], the values for the IC50 in assay [1] and in assay [2] were 2.5 nM and 64.3 nM, respectively. Also, in assay [3] (setting [4]), the EC50 came out at 178 nM.

On to `O=C(NCc1ccc(Cl)cc1)c1ccc2n(c1=O)CCN(CC1(S(=O)(=O)C3(F)CC3)CC1)C2=O` [Example 76, N-(4-chlorobenzyl)-2-((1-((1-fluorocyclopropyl)sulfonyl)cyclopropyl)methyl)-1,6-dioxo-2,3,4,6-tetrahydro-1H-pyrido[1,2-a]pyrazine-7-carboxamide], for which the IC50 in assay [1] is 1.9 nM; in assay [2], 59.5 nM. The EC50 in assay [3] (setting [4]) was 46.9 nM.

With `CCS(=O)(=O)C1(CN2CCn3c(ccc(C(=O)NCc4ccc(C#N)cc4)c3=O)C2=O)CC1` [Example 35], the values for the IC50 in assay [1] and in assay [2] were 2.6 nM and 68.9 nM, respectively. In addition, in assay [3] (setting [4]), the EC50 stood at 54.4 nM.

Take `N#Cc1ccc(CNC(=O)c2ccc3n(c2=O)CCN(CC2(S(=O)(=O)C4(CF)CC4)CC2)C3=O)cc1F` [Example 14]: the values for the IC50 in assay [1] and in assay [2] were 0.3 nM and 27.9 nM, respectively. In addition, the EC50 in assay [3] (setting [4]) is 10 nM.

With `CCS(=O)(=O)NC1(CN2CCn3c(ccc(C(=O)NCc4ccc(Cl)cc4)c3=O)C2=O)CC1` [Example 199], the IC50 in assay [1] worked out at 53.7 nM; in assay [2], 1110 nM. Moreover, in assay [3] (setting [4]), the EC50 stood at 1720 nM.

For the compound `CC(CN1CCn2c(ccc(C(=O)NCc3ccc(C#N)cc3)c2=O)C1=O)S(=O)(=O)C1CC1` (stereo not drawn) [Example 192], the IC50 came to 194 nM in assay [1] and 3010 nM in assay [2]. Besides, the EC50 in assay [3] (setting [4]) was found to be 8050 nM.

In the case of `COC1(S(=O)(=O)C2(CN3CCn4c(ccc(C(=O)NCc5ccc(C#N)cc5)c4=O)C3=O)CC2)CC1` [Example 189], the IC50 in assay [1] was 1.1 nM; in assay [2] it was 59.8 nM. The EC50 in assay [3] (setting [4]) stood at 55.7 nM.

For the compound `N#Cc1ccc(CNC(=O)c2ccc3n(c2=O)CCN(CC2(S(=O)(=O)C4CCNC4)CC2)C3=O)cc1F` (stereo not drawn) [Example 81-1], the IC50 in assay [1] stood at 3.8 nM; in assay [2], 152 nM. Besides, in assay [3] (setting [4]), the EC50 was 1070 nM.

For the compound `N#Cc1ccc(CNC(=O)c2ccc3n(c2=O)CCN(CC2(S(=O)(=O)N4CCC4)CC2)C3=O)cc1` [Example 88-2], the IC50 in assay [1] stood at 3.2 nM; in assay [2], 73.5 nM. The EC50 in assay [3] (setting [4]) worked out at 39.5 nM.

Consider `N#Cc1ccc(CNC(=O)c2ccc3n(c2=O)CCN(CC2(S(=O)(=O)C4CCC4)CC2)C3=O)cc1F` [Example 79-2], for which the values for the IC50 in assay [1] and in assay [2] were 2 nM and 65.4 nM, respectively. Besides, the EC50 in assay [3] (setting [4]) is 34.3 nM.

Consider `CC(CCO)S(=O)(=O)C1(CN2CCn3c(ccc(C(=O)NCc4ccc(C#N)cc4)c3=O)C2=O)CC1` (stereo not drawn) [Example 5, N-(4-cyanobenzyl)-2-((1-((4-hydroxybutan-2-yl)sulfonyl)cyclopropyl)methyl)-1,6-dioxo-2,3,4,6-tetrahydro-1H-pyrido[1,2-a]pyrazine-7-carboxamide], for which the figures for the IC50 in assay [1] and in assay [2] were 2.2 nM and 105 nM, respectively. Further, in assay [3] (setting [4]), the EC50 was found to be 470 nM.

On to `N#Cc1ccc(CNC(=O)c2ccc3n(c2=O)CCN(CC2(S(=O)(=O)N4CCC4)CC2)C3=O)cc1F` [Example 88-1, 2-((1-(azetidin-1-ylsulfonyl)cyclopropyl)methyl)-N-(4-cyano-3-fluorobenzyl)-1,6-dioxo-2,3,4,6-tetrahydro-1H-pyrido[1,2-a]pyrazine-7-carboxamide], for which the IC50 in assay [1] was 2 nM; in assay [2], 65.1 nM. Besides, the EC50 in assay [3] (setting [4]) is 24.2 nM.

For `O=C(NCc1ccc(Cl)cc1)c1ccc2n(c1=O)CCN(CC1(S(=O)(=O)CCCO)CC1)C2=O` [Example 25], the results for the IC50 in assay [1] and in assay [2] were 2.8 nM and 80.8 nM, respectively. Also, in assay [3] (setting [4]), the EC50 came out at 88.9 nM.

In the case of `N#Cc1ccc(CNC(=O)c2ccc3n(c2=O)CCN(CC2(S(=O)(=O)C4(F)CC4)CC2)C3=O)cc1F` [Example 77-2], the figures for the IC50 in assay [1] and in assay [2] were 1.9 nM and 77.2 nM, respectively. The EC50 in assay [3] (setting [4]) turned out to be 57.7 nM.
